Assay results reported in US10842892B2, “Methods and apparatus for synthesizing imaging agents, and intermediates thereof” (Lantheus Medical Imaging, Inc., priority 2010, dated 2020).
Where “and” joins values, the source holds several entries; their conditions need not be identical. Equal values may be shown once.

How the values were obtained:
healthy adults = experiment: whole-organ biodistribution and residence times by whole-body PET; type: in vivo, human; conditions: for Mean Percent Administered Dose, Brain / Mean Percent Administered Dose, GI Stomach Wall / Mean Percent Administered Dose, Heart Wall / Mean Percent Administered Dose, Kidneys / Mean Percent Administered Dose, Liver / Mean Percent Administered Dose, Marrow (lumbar) / Mean Percent Administered Dose, Salivary / Mean Percent Administered Dose, Spleen / Mean Percent Administered Dose, Thyroid / Mean Percent Administered Dose, Urinary Bladder / Mean Percent Administered Dose, Whole Body: N = 12, decay corrected
Protocol: Whole-body PET imaging from head to mid thigh was performed at protocol-specified time-windows.
The attenuation corrected transverse image data slice planes were combined into a single three-dimensional image matrix for each subject and each time point using custom software. These images were then divided into 6 image sets (“anterior”, “posterior”, “salivary”, “thyroid”, “source”, and “full”) of combined coronal plane image data for each subject at each time point, grouping organs with similar anterior to posterior depths. This was done to optimize the ROI creation, and minimize background contribution to the organs contained in each combined coronal plane image. The “anterior” images contained stomach wall, heart wall, and urinary bladder. The “posterior” images contained kidneys, lumbar spine, and spleen (when visible). The “salivary” images contained the salivary glands (parotid and submandibular). The “thyroid” images contained the thyroid. The “full” images combined all of the coronal image planes that contained subject image data and was used for quantification of the brain and liver. The “source” images contained the calibration source.
Absolute radioactivity was determined by normalizing ROI sums by a calibration factor derived from the calibration source. Region counts were also adjusted for activity containing underlying and overlying tissue that was not part of the organ or tissue being quantified by utilization of background regions of interest. Total body region counts were also corrected for off body background counts. Appropriate normalization of region sizes for organ and adjacent regions were made. Unobstructed regions of organs with significant overlap from other activity containing organs were also employed where necessary. In order to estimate the activity in the lower legs (which were not imaged), a region of interest on the upper thigh was utilized. Activities were also normalized where necessary to account for 100% of the injected activity, and to insure conservative (slight over-estimates) determination of absorbed dose.
Kinetic data for brain, heart wall, kidneys, liver, red marrow (lumbar spine regions were utilized), salivary glands, spleen, stomach wall, thyroid, and urinary bladder for the subjects in the study were determined using image quantification methodology. Absolute activity was converted to fractional dose by dividing by the total activity administered. Organ and tissue data were fit using non-linear least-squares regression with sums of exponentials of the form shown in Equation 1, where f and λ are the model parameters that are determined in the fitting process, Fij(t) is the fraction of the total injected activity, t is the time post injection, i is the i^th ROI, j is the j^th subject, and k is the k^th exponential term. Between one and four exponential terms were employed, as appropriate.
The regression was performed using custom software that determines initial parameter values based on the temporal variation of the kinetic data, and the use of pre-tabulated estimates for various time activity scenarios as selected by the user. […] Remainder of Body residence times were determined by subtraction of appropriate organ residence times from whole body residence times. Urinary bladder residence times were determined using the parameters determined by fitting the whole body activity data with a urinary bladder model as implemented in the OLINDA/EXM software with 3.5 hour bladder voiding interval. Red marrow residence time was determined based on a region of interest drawn on a portion of the lumbar spine. The lumbar spine was assumed to contain 16.1% (International Commission on Radiological Protection (ICRP) Publication 23, Report of the Task Group on Reference Man. Pergamon Press. 1975, page 125) of the total red marrow.

[1] = test system: blood brain barrier (BBB); experiment: brain uptake with and without blood brain barrier disruption; type: in vivo, rat; conditions: rat
Protocol: Male Sprague-Dawley rats were anesthetized with sodium pentobarbital and the left external carotid artery was cannulated close to the internal and external carotid bifurcation. Using saline as control and 25% D-mannitol as hypertonic solution, each were perfused retrogradely in six animals (0.3 mL/kg/sec) for 30 seconds. Two minutes later, ˜1 mCi imaging agent 1 was injected via tail vein and the brain was imaged with a microPET camera for 30 minutes. […] Following completion of imaging, the brain was harvested, photographed and dissected into left and right hemispheres and cerebellum. The tissue content of imaging agent 1 radioactivity was measured by gamma counter and Evans blue levels were determined by fluorescence method for calculation of the % injected dose/gram tissue and μg Evan blue/gram tissue, respectively.

[2] = N = 12, Void Interval = 3.5 hours
[3] = whole body coronal images, representative subject

Question: What does the source list for CC(C)(C)n1ncc(OCc2ccc(COCC[18F])cc2)c(Cl)c1=O [imaging agent 1, 2-t-butyl-4-chloro-5-[4-(2-(^18F)fluoroethoxymethyl)-benzyloxy]-2H-pyridazin-3-1]?
Answer: Mean Percent Administered Dose, Brain (healthy adults; 0.17 hr post-dose): 8.3%; Mean Percent Administered Dose, GI Stomach Wall (healthy adults; 0.17 hr post-dose): 2.5%; Mean Percent Administered Dose, Heart Wall (healthy adults; 0.17 hr post-dose): 3.1%; Mean Percent Administered Dose, Kidneys (healthy adults; 0.17 hr post-dose): 9.4%; Mean Percent Administered Dose, Liver (healthy adults; 0.17 hr post-dose): 19.1%; Mean Percent Administered Dose, Marrow (lumbar) (healthy adults; 0.17 hr post-dose): 0.3%; Mean Percent Administered Dose, Salivary (healthy adults; 0.17 hr post-dose): 0.6%; Mean Percent Administered Dose, Spleen (healthy adults; 0.17 hr post-dose): 0.9%; Mean Percent Administered Dose, Thyroid (healthy adults; 0.17 hr post-dose): 0.1%; Mean Percent Administered Dose, Urinary Bladder (healthy adults; 0.17 hr post-dose): 0.3%; Mean Percent Administered Dose, Whole Body (healthy adults; 0.17 hr post-dose): 100.0%; Mean Percent Administered Dose, Brain (healthy adults; 0.50 hr post-dose): 7.9%; Mean Percent Administered Dose, GI Stomach Wall (healthy adults; 0.50 hr post-dose): 2.4%; Mean Percent Administered Dose, Heart Wall (healthy adults; 0.50 hr post-dose): 3.2%; Mean Percent Administered Dose, Kidneys (healthy adults; 0.50 hr post-dose): 6.5%; Mean Percent Administered Dose, Liver (healthy adults; 0.50 hr post-dose): 18.0%; Mean Percent Administered Dose, Marrow (lumbar) (healthy adults; 0.50 hr post-dose): 0.3%; Mean Percent Administered Dose, Salivary (healthy adults; 0.50 hr post-dose): 0.7%; Mean Percent Administered Dose, Spleen (healthy adults; 0.50 hr post-dose): 0.6%; Mean Percent Administered Dose, Thyroid (healthy adults; 0.50 hr post-dose): 0.1%; Mean Percent Administered Dose, Urinary Bladder (healthy adults; 0.50 hr post-dose): 0.2%; Mean Percent Administered Dose, Whole Body (healthy adults; 0.50 hr post-dose): 99.8%; Mean Percent Administered Dose, Brain (healthy adults; 0.83 hr post-dose): 7.3%; Mean Percent Administered Dose, GI Stomach Wall (healthy adults; 0.83 hr post-dose): 2.2%; Mean Percent Administered Dose, Heart Wall (healthy adults; 0.83 hr post-dose): 3.4%; Mean Percent Administered Dose, Kidneys (healthy adults; 0.83 hr post-dose): 4.9%; Mean Percent Administered Dose, Liver (healthy adults; 0.83 hr post-dose): 16.4%; Mean Percent Administered Dose, Marrow (lumbar) (healthy adults; 0.83 hr post-dose): 0.3%; Mean Percent Administered Dose, Salivary (healthy adults; 0.83 hr post-dose): 0.6%; Mean Percent Administered Dose, Spleen (healthy adults; 0.83 hr post-dose): 0.4%; Mean Percent Administered Dose, Thyroid (healthy adults; 0.83 hr post-dose): 0.1%; Mean Percent Administered Dose, Urinary Bladder (healthy adults; 0.83 hr post-dose): 0.3%; Mean Percent Administered Dose, Whole Body (healthy adults; 0.83 hr post-dose): 99.7%; Mean Percent Administered Dose, Brain (healthy adults; 2.0 hr post-dose): 4.7%; Mean Percent Administered Dose, GI Stomach Wall (healthy adults; 2.0 hr post-dose): 0.7%; Mean Percent Administered Dose, Heart Wall (healthy adults; 2.0 hr post-dose): 2.4%; Mean Percent Administered Dose, Kidneys (healthy adults; 2.0 hr post-dose): 1.6%; Mean Percent Administered Dose, Liver (healthy adults; 2.0 hr post-dose): 7.5%; Mean Percent Administered Dose, Salivary (healthy adults; 2.0 hr post-dose): 0.5%; Mean Percent Administered Dose, Spleen (healthy adults; 2.0 hr post-dose): 0.3%; Mean Percent Administered Dose, Thyroid (healthy adults; 2.0 hr post-dose): 0.1%; Mean Percent Administered Dose, Urinary Bladder (healthy adults; 2.0 hr post-dose): 0.9%; Mean Percent Administered Dose, Whole Body (healthy adults; 2.0 hr post-dose): 98.2%; Mean Percent Administered Dose, Brain (healthy adults; 2.5 hr post-dose): 4.1%; Mean Percent Administered Dose, GI Stomach Wall (healthy adults; 2.5 hr post-dose): 0.7%; Mean Percent Administered Dose, Heart Wall (healthy adults; 2.5 hr post-dose): 2.5%; Mean Percent Administered Dose, Kidneys (healthy adults; 2.5 hr post-dose): 1.6%; Mean Percent Administered Dose, Liver (healthy adults; 2.5 hr post-dose): 7.0%; Mean Percent Administered Dose, Salivary (healthy adults; 2.5 hr post-dose): 0.5%; Mean Percent Administered Dose, Spleen (healthy adults; 2.5 hr post-dose): 0.3%; Mean Percent Administered Dose, Thyroid (healthy adults; 2.5 hr post-dose): 0.1%; Mean Percent Administered Dose, Urinary Bladder (healthy adults; 2.5 hr post-dose): 1.1%; Mean Percent Administered Dose, Whole Body (healthy adults; 2.5 hr post-dose): 98.1%; Mean Percent Administered Dose, Brain (healthy adults; 3.83 hr post-dose): 3.2%; Mean Percent Administered Dose, GI Stomach Wall (healthy adults; 3.83 hr post-dose): 0.6%; Mean Percent Administered Dose, Heart Wall (healthy adults; 3.83 hr post-dose): 2.1%; Mean Percent Administered Dose, Kidneys (healthy adults; 3.83 hr post-dose): 1.2%; Mean Percent Administered Dose, Liver (healthy adults; 3.83 hr post-dose): 4.5%; Mean Percent Administered Dose, Salivary (healthy adults; 3.83 hr post-dose): 0.4%; Mean Percent Administered Dose, Spleen (healthy adults; 3.83 hr post-dose): 0.3%; Mean Percent Administered Dose, Thyroid (healthy adults; 3.83 hr post-dose): 0.1%; Mean Percent Administered Dose, Urinary Bladder (healthy adults; 3.83 hr post-dose): 1.4%; Mean Percent Administered Dose, Whole Body (healthy adults; 3.83 hr post-dose): 96.8%; Mean Percent Administered Dose, Brain (healthy adults; 4.5 hr post-dose): 2.9%; Mean Percent Administered Dose, GI Stomach Wall (healthy adults; 4.5 hr post-dose): 0.6%; Mean Percent Administered Dose, Heart Wall (healthy adults; 4.5 hr post-dose): 2.1%; Mean Percent Administered Dose, Kidneys (healthy adults; 4.5 hr post-dose): 1.1%; Mean Percent Administered Dose, Liver (healthy adults; 4.5 hr post-dose): 4.7%; Mean Percent Administered Dose, Salivary (healthy adults; 4.5 hr post-dose): 0.4%; Mean Percent Administered Dose, Thyroid (healthy adults; 4.5 hr post-dose): 0.1%; Mean Percent Administered Dose, Urinary Bladder (healthy adults; 4.5 hr post-dose): 1.7%; Mean Percent Administered Dose, Whole Body (healthy adults; 4.5 hr post-dose): 96.9%; mean peak uptake, brain (healthy adults; N = 12): approximately 8.3 % of the injected activity; mean peak uptake, kidneys (healthy adults; N = 12): approximately 9.4 % of the injected activity; mean peak uptake, liver (healthy adults; N = 12): approximately 19.1 % of the injected activity; Residence Time, Mean, Brain (healthy adults; [2]): 0.14 h and 0.138 h; Residence Time, Mean, GI Stomach Wall (healthy adults; [2]): 0.033 h; Residence Time, Mean, Heart Wall (healthy adults; [2]): 0.0728 h; Residence Time, Mean, Kidneys (healthy adults; [2]): 0.0952 h; Residence Time, Mean, Liver (healthy adults; [2]): 0.28 h and 0.277 h; Residence Time, Mean, Red Marrow (healthy adults; [2]): 0.0886 h; Residence Time, Mean, Remainder of Body (healthy adults; [2]): 1.8 h and 1.84 h; Residence Time, Mean, Salivary (healthy adults; [2]): 0.0148 h; Residence Time, Mean, Spleen (healthy adults; [2]): 0.0101 h; Residence Time, Mean, Thyroid (healthy adults; [2]): 0.00331 h; Residence Time, Mean, Urinary Bladder (healthy adults; [2]): 0.0265 h; high and sustained heart retention of ^18F, through time after injection (healthy adults; [3]): approximately 5 hours; time of liver clearing after injection (healthy adults; [3]): approximately 2 hours; BBB permeability [1]: high BBB permeability
